In PMC11596155, “When Chirality Makes the Difference: The Case of Novel Enantiopure N-Heterocyclic Carbene–Gold and –Silver Complexes” (Molecules, 2024):
Each block holds one molecule with its values, some of them ahead of it.

Columns and labels:
[1] = system: Escherichia coli (ATCC 25922); test: MIC and MBC by broth dilution, E. coli; type: cell-based; conditions: for M.B.C. E. coli / M.I.C. E. coli / MIC: broth dilution, overnight 37 °C; for MIC: Escherichia coli, ATCC25922
Excerpt: (§1) The bacterial strains used for MIC and MBC value determinations expressed as µg/mL by the broth dilution method, according to CLSI guidelines, were the following: Gram-negative: Escherichia coli (ATCC® 25922TM); Gram-positive: Staphylococcus aureus (ATCC® 23235TM). The MIC represents the lowest concentration of compound able to inhibit the visible microbial growth, expressed in μg/mL, whereas the MBC is the lowest concentration of a given compound that can completely kill the bacteria. Bacteria were grown overnight in LB medium (2%), diluted at a density of […] colony forming units (CFUs/mL), plated in the 96-well microplates to obtain a total inoculum load of ca. 10^5 cells/well and then treated with increasing concentrations of the tested complexes (1, 5, 10, 20, 50, 100, 200 μg/mL). Successively, after incubation at 37 °C overnight, the bacterial growth was monitored at a wavelength of 600 nm using a Multiskan spectrophotometer (Multiskan Ex Microplate model; Thermo Scientific, Nyon, Switzerland). MIC or MBC values were obtained by comparing cell density with a positive control (bacterial cells grown in LB medium were added with only the vehicle, DMSO). The results were representative of three independent experiments performed in triplicate and ampicillin (Sigma Aldrich A9393) was used as the control for strain sensitivity.

MCF-10A cells = test: MTT assay, cytotoxicity on normal mammary epithelial cells MCF-10A; type: cell-based, human; conditions: 72 h, normal cells, mean ± SD of three experiments
Description: (§2) All cell lines used for the reported studies were purchased from the American Type Culture Collection (ATCC, Manassas, VA, USA). Human breast cancer cells MCF-7 and MDA-MB-231 were maintained in Dulbecco’s Modified Eagle Medium/Nutrient Mixture F12 Ham (DMEM/F12) supplemented with 5% fetal bovine serum (FBS), 1% L-glutamine and 100 units/mL of penicillin/streptomycin. Human mammary epithelial cells MCF-10A were cultured in DMEM/F12 medium, supplemented with 5% horse serum (HS), 100 units/mL of penicillin/streptomycin, […], 0.02 µg/mL human epidermal growth factor (EGF), 10 µg/mL insulin and […] [34]. The murine macrophages RAW 264.7 were grown in Dulbecco’s Modified Eagle’s Medium (DMEM) high glucose (4.5 g/L), added with 10% fetal bovine serum (FBS), 1% L-glutamine and 100 units/mL of penicillin/streptomycin. Cells were maintained at 37 °C, in a humidified atmosphere containing 5% CO2.
(§3) Cell viability was determined using the 3-(4,5-dimethylthiazol-2-y1)-2,5-diphenyltetrazolium bromide assay (MTT, Sigma-Aldrich, Milan, Italy), as in [35]. Cells were treated for 72 h (anticancer activity) or 24 h (anti-inflammatory activity) at different concentrations and the IC50 values were obtained using GraphPad Prism 9 software (GraphPad Software, La Jolla, CA, USA).

MCF-7 cells = test: MTT assay, anticancer activity, MCF-7; type: cell-based, human; conditions: mean ± SD of three experiments
Description: as §2, §3

[2] = system: Staphylococcus aureus (ATCC 23235); test: MIC and MBC by broth dilution, S. aureus; type: cell-based; conditions: for M.B.C. S. aureus / M.I.C. S. aureus / MIC: broth dilution, overnight 37 °C; for MIC: Staphylococcus aureus, ATCC23235, read-out: M.I.C. S. aureus
Excerpt: as §1

MDA-MB-231 cells = test: MTT assay, anticancer activity, MDA-MB-231; type: cell-based, human; conditions: for IC50: mean ± SD of three experiments
Description: as §2, §3

[3] = system: NO production in LPS-stimulated RAW 264.7 macrophages (iNOS); test: Griess assay, NO production in LPS-stimulated RAW 264.7 macrophages; type: cell-based, murine; conditions: 24 h, LPS 1 µg/mL, RAW 264.7, vs LPS only
Excerpt: Inflammation is an important process, in which the immune system is activated, allowing the protection from infections by eliminating pathogens and promoting repairing phenomena. However, in some cases, the inflammation can become chronic, playing a key role in several diseases, such as cancer, diabetes, autoimmune and neurodegenerative disorders. Moreover, chronic inflammation is characterized by a proliferation of different specialized cells, for instance macrophages, fibroblasts, granulocytes and so on. […] NO is produced by nitric oxide synthases (NOS) isoforms, but under different pro-inflammatory stimuli (cytokines or microbial products) it is massively produced by the inducible NOS (iNOS, NOS2; or type II NOS). iNOS can be also overexpressed in several diseases, producing NO in an unregulated manner and contributing to the disease progression. For these reasons, its inhibition represents a good strategy for the treatment of various diseases related to chronic inflammation, amongst them cancer. The anti-inflammatory activity, in terms of NO production inhibition, of the new synthesized chiral complexes was evaluated by the means of a Griess-based assay. Particularly, the NO production was induced in murine macrophages RAW 264.7 stimulated with bacterial lipopolysaccharide (LPS), then they were exposed to the complexes for 24 h and the released NO was quantified (as detailed in the Section 3). […] Therefore, pro-ligands P1 and P2, as R and S pure enantiomers, were tested. The obtained outcomes are visible in Figure 2 (panels A and B, P1 and P2 series, respectively), where it is possible to notice “at glance” that most of the enantiopure compounds were unable to decrease the NO synthesis, induced by LPS treatment in RAW 264.7 macrophages (see pink bars in the graph), with the exception of (R)-AuL1 and (R)-AuL2. Particularly, (R)-AuL1 was able to decrease, dose-dependently, the NO production of about 23 and 35% at 5 and 10 µM, respectively, whereas the S enantiomer was unable to reduce NO, under the same experimental conditions. […] Furthermore, none of the pro-ligands was found able to decrease NO production. […] Finally, viability assays were performed on RAW 264.7 macrophages, recovered after the Griess test.
Anti-inflammatory activity was tested adopting the Griess assay on RAW 264.7 murine macrophages, by measuring NO production, as reported by. Specifically, RAW 264.7 cells were plated on 48 multi-wells and treated with the tested molecules at the indicated concentrations; lipopolysaccharide (LPS, Sigma Aldrich, Milan, Italy), at a final concentration of 1 µg/mL, was used to induce inflammation and stimulate NO production. After 24 h, the cell medium and Griess reagent were mixed at a 1:1 ratio and left under agitation for 30 min, at room temperature. Then, absorbance was measured at 540 nm, using a multiplate reader. The absorbance obtained allowed to assess the percentage of NO production compared with the positive control, in which the cells have been treated with LPS.
Figure 2 Panel (A), L1 series and panel (B), L2 series. Anti-inflammatory activity (pink bars): NO production was induced in murine macrophages RAW 264.7 treated with LPS (1 µg/mL), in presence or not of the enantiopure complexes and pro-ligands at the indicated concentrations (µM), for 24 h. Indomethacin (Ind) was used as the reference molecule. Data were plotted as % NO inhibition with respect to LPS-only treatment. […]

SMILES: CN1C=CN(C[C@H](O)c2ccccc2)[CH]1[AgH][I] (stereo partly drawn) [(R)-AgL1, (1-((R)-2-hydroxy-2-phenylethyl)-3-methyl-2,3-dihydro-1H-imidazol-2-yl)silver(I) iodide]
M.B.C. E. coli [1]: > 100 µg/mL
M.I.C. E. coli [1]: 25 µg/mL
IC50 (MCF-10A cells): 54.8 ± 2.1 µM
IC50 (MCF-7 cells; 72 h): 14.5 ± 1.2 µM
M.B.C. S. aureus [2]: > 150 µg/mL
M.I.C. S. aureus [2]: 75 µg/mL
IC50 (MDA-MB-231 cells; 72 h): 9.2 ± 0.5 µM

SMILES: CN1C(Cl)=C(Cl)N(C[C@H](O)c2ccccc2)[CH]1[AgH][I] (stereo partly drawn) [(R)-AgL2, (4,5-dichloro-1-((R)-2-hydroxy-2-phenylethyl)-3-methyl-2,3-dihydro-1H-imidazol-2-yl)silver(I) iodide]
M.B.C. E. coli [1]: > 100 µg/mL
M.I.C. E. coli [1]: 50 µg/mL
IC50 (MCF-10A cells): 69.2 ± 2.7 µM
IC50 (MCF-7 cells; 72 h): 18.4 ± 0.9 µM
M.B.C. S. aureus [2]: > 150 µg/mL
M.I.C. S. aureus [2]: 75 µg/mL
IC50 (MDA-MB-231 cells; 72 h): 6.7 ± 0.7 µM

SMILES: CN1C=CN(C[C@H](O)c2ccccc2)[CH]1[Au-][Cl] (stereo partly drawn) [(R)-AuL1, (1-((R)-2-hydroxy-2-phenylethyl)-3-methyl-2,3-dihydro-1H-imidazol-2-yl)gold(I) chloride]
M.B.C. E. coli [1]: > 150 µg/mL
M.I.C. E. coli [1]: 75 µg/mL
decrease of NO production ([3]; 5 µM): about 23%
decrease of NO production ([3]; 10 µM): ~35%
IC50 (MCF-10A cells): 52.9 ± 2.2 µM
IC50 (MCF-7 cells; 72 h): 16 ± 0.8 µM
M.B.C. S. aureus [2]: > 150 µg/mL
M.I.C. S. aureus [2]: 25 µg/mL
IC50 (MDA-MB-231 cells; 72 h): 15.3 ± 4.5 µM

MIC [1]: 100 µg/mL
IC50 (MCF-7 cells; Homo sapiens, MCF7, 72 h): > 200 µM
MIC [2]: 75 µg/mL
IC50 (MDA-MB-231 cells; Homo sapiens, MDA-MB-231, 72 h): > 200 µM
SMILES: C[n+]1ccn(C[C@H](O)c2ccccc2)c1.[I-] [(R)-P1, (R)-1-(2-hydroxy-2-phenylethyl)-3-methyl-1H-imidazol-3-ium iodide]
M.B.C. E. coli [1]: > 200 µg/mL
IC50 (MCF-10A cells; Homo sapiens, MCF-10A): > 200 µM
M.B.C. S. aureus [2]: > 150 µg/mL

MIC [1]: 75 µg/mL
IC50 (MCF-7 cells; Homo sapiens, MCF7, 72 h): > 200 µM
MIC [2]: 75 µg/mL
IC50 (MDA-MB-231 cells; Homo sapiens, MDA-MB-231, 72 h): > 200 µM
SMILES: C[n+]1cn(C[C@H](O)c2ccccc2)c(Cl)c1Cl.[I-] [(R)-P2, (R)-4,5-dichloro-1-(2-hydroxy-2-phenylethyl)-3-methyl-1H-imidazol-3-ium iodide]
M.B.C. E. coli [1]: > 200 µg/mL
IC50 (MCF-10A cells; Homo sapiens, MCF-10A): > 200 µM
M.B.C. S. aureus [2]: > 150 µg/mL

SMILES: CN1C=CN(C[C@@H](O)c2ccccc2)[CH]1[AgH][I] (stereo partly drawn) [(S)-AgL1, (1-((S)-2-hydroxy-2-phenylethyl)-3-methyl-2,3-dihydro-1H-imidazol-2-yl)silver(I) iodide]
M.B.C. E. coli [1]: > 200 µg/mL
M.I.C. E. coli [1]: 75 µg/mL
IC50 (MCF-10A cells): > 200 µM
IC50 (MCF-7 cells; 72 h): 69.8 ± 2.1 µM
M.B.C. S. aureus [2]: > 100 µg/mL
M.I.C. S. aureus [2]: 50 µg/mL
IC50 (MDA-MB-231 cells; 72 h): > 200 µM

SMILES: CN1C(Cl)=C(Cl)N(C[C@@H](O)c2ccccc2)[CH]1[AgH][I] (stereo partly drawn) [(S)-AgL2, (4,5-dichloro-1-((S)-2-hydroxy-2-phenylethyl)-3-methyl-2,3-dihydro-1H-imidazol-2-yl)silver(I) iodide]
M.B.C. E. coli [1]: > 200 µg/mL
M.I.C. E. coli [1]: 75 µg/mL
IC50 (MCF-10A cells): > 200 µM
IC50 (MCF-7 cells; 72 h): 4 ± 0.5 µM
M.B.C. S. aureus [2]: > 200 µg/mL
M.I.C. S. aureus [2]: 75 µg/mL
effect on MDA-MB-231 viability (in words) (MDA-MB-231 cells; 72 h): inactive
IC50 (MDA-MB-231 cells; 72 h): > 200 µM

SMILES: CN1C=CN(C[C@@H](O)c2ccccc2)[CH]1[Au-][Cl] (stereo partly drawn) [(S)-AuL1, (1-((S)-2-hydroxy-2-phenylethyl)-3-methyl-2,3-dihydro-1H-imidazol-2-yl)gold(I) chloride]
M.B.C. E. coli [1]: > 150 µg/mL
M.I.C. E. coli [1]: 75 µg/mL
IC50 (MCF-10A cells): 64.5 ± 3.2 µM
IC50 (MCF-7 cells; 72 h): 14.6 ± 1 µM
M.B.C. S. aureus [2]: > 150 µg/mL
M.I.C. S. aureus [2]: 75 µg/mL
IC50 (MDA-MB-231 cells; 72 h): 22.6 ± 0.4 µM

SMILES: CN1C(Cl)=C(Cl)N(C[C@@H](O)c2ccccc2)[CH]1[Au-][Cl] (stereo partly drawn) [(S)-AuL2, (4,5-dichloro-1-((S)-2-hydroxy-2-phenylethyl)-3-methyl-2,3-dihydro-1H-imidazol-2-yl)gold(I) chloride]
M.B.C. E. coli [1]: > 200 µg/mL
M.I.C. E. coli [1]: 100 µg/mL
IC50 (MCF-10A cells): 17.2 ± 1.6 µM
IC50 (MCF-7 cells; 72 h): 10 ± 0.5 µM
M.B.C. S. aureus [2]: > 100 µg/mL
M.I.C. S. aureus [2]: 75 µg/mL
IC50 (MDA-MB-231 cells; 72 h): 11.5 ± 0.4 µM

MIC [1]: 100 µg/mL
IC50 (MCF-7 cells; Homo sapiens, MCF7, 72 h): > 200 µM
MIC [2]: 75 µg/mL
IC50 (MDA-MB-231 cells; Homo sapiens, MDA-MB-231, 72 h): > 200 µM
SMILES: C[n+]1ccn(C[C@@H](O)c2ccccc2)c1.[I-] [(S)-P1, (S)-1-(2-hydroxy-2-phenylethyl)-3-methyl-1H-imidazol-3-ium iodide]
M.B.C. E. coli [1]: > 200 µg/mL
IC50 (MCF-10A cells; Homo sapiens, MCF-10A): > 200 µM
M.B.C. S. aureus [2]: > 150 µg/mL

MIC [1]: 75 µg/mL
IC50 (MCF-7 cells; Homo sapiens, MCF7, 72 h): > 200 µM
MIC [2]: 75 µg/mL
IC50 (MDA-MB-231 cells; Homo sapiens, MDA-MB-231, 72 h): > 200 µM
SMILES: C[n+]1cn(C[C@@H](O)c2ccccc2)c(Cl)c1Cl.[I-] [(S)-P2, (S)-4,5-dichloro-1-(2-hydroxy-2-phenylethyl)-3-methyl-1H-imidazol-3-ium iodide]
M.B.C. E. coli [1]: > 150 µg/mL
IC50 (MCF-10A cells; Homo sapiens, MCF-10A): > 200 µM
M.B.C. S. aureus [2]: > 200 µg/mL

SMILES: COc1ccc2c(c1)c(CC(=O)O)c(C)n2C(=O)c1ccc(Cl)cc1 [Ind, Indomethacin, reference compound]
decrease of NO production ([3]; 50 µM): about 26%

SMILES: CC1(C)S[C@@H]2[C@H](NC(=O)[C@H](N)c3ccccc3)C(=O)N2[C@H]1C(=O)O [ampicillin, reference compound]
strain sensitivity E. coli (in words) ([1]; control for strain sensitivity): sensitive
strain sensitivity S. aureus (in words) ([2]; control for strain sensitivity): sensitive
